Data from patent US9708336B2, “Metallo-beta-lactamase inhibitors” (priority 2014, dated 2017).
Like-named read-outs stand apart in the source and are kept apart here.

What was measured:
[1] = test system: Serratia marcescens expressing IMP-1 (CL5741); assay: Antibiotic potentiation activity: synergistic concentration (MITC95) with imipenem, OD600 growth; assay type: cell-based; settings: for Serratia marcescens expressing IMP-1 (CL5741) MITC95: concentration giving 95% inhibition of bacterial growth
Summary of the method: (§1)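 Test compound was combined with 4 μg/ml imipenem (or optionally 1 μg/ml), or with no antibiotic, against saline-suspended colonies diluted 1:100 in 1.1×CAMHB. Strains were E. coli NDM-1, S. marcescens IMP-1 and K. pneumoniae VIM-1. Plates were incubated 22–24 h at 35 °C before absorbance (OD600) readout.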

[2] = test system: Klebsiella pneumoniae expressing VIM-1 (IHMA599644); assay: as above; assay type: cell-based; settings: for Klebsiella pneumoniae expressing VIM-1 (IHMA 599644) MITC95: concentration giving 95% inhibition of bacterial growth
Summary of the method: as §1

[3] = test system: Escherichia coli expressing NDM-1 (CLB30016); assay: as above; assay type: cell-based; settings: for Escherichia coli expressing NDM-1 (CLB 30016) MITC95: concentration giving 95% inhibition of bacterial growth
Summary of the method: as §1

[4] = target: NDM-1 (Klebsiella pneumoniae, UniProt C7C422); assay: biochemical; assay type: biochemical
Chain of NDM-1 (C7C422 whole entry, looked up, species assumed): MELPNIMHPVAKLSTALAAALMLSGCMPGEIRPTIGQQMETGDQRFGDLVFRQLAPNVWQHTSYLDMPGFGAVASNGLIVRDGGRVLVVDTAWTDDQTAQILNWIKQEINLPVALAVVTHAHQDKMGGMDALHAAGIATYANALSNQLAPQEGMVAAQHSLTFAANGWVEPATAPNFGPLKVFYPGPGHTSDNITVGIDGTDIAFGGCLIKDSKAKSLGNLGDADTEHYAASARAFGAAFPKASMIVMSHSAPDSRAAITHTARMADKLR

[5] = target: VIM-1 (Pseudomonas aeruginosa (strain ATCC 15692 / DSM 22644 / CIP 104116 / JCM 14847 / LMG 12228 / 1C / PRS 101 / PAO1), UniProt A0A0F7KYQ8); assay: Enzyme activity: determination of IC50, fluorescence assay with CCF2-FA substrate (VIM-1); assay type: biochemical
[6] = target: IMP-1 (Serratia marcescens, UniProt P52699); assay: biochemical; assay type: biochemical; settings: read-out: IMP-1 IC50
Chain of IMP-1 (P52699 whole entry, looked up): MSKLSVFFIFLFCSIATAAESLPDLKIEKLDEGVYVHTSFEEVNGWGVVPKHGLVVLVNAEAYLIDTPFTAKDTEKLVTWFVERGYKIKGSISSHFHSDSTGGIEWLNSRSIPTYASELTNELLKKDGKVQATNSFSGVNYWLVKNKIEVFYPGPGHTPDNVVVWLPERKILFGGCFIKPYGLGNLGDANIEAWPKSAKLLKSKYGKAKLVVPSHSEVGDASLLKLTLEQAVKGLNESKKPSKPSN

[7] = fluorescence assay with CCF2-FA substrate, read-out: NDM-1 IC50
[8] = fluorescence assay with CCF2-FA substrate, read-out: VIM-1 IC50
[9] = fluorescence assay with CCF2-FA substrate
[10] = CL5741 (IMP-1), 95% inhibition of bacterial growth
[11] = IHMA599644 (VIM-1), 95% inhibition of bacterial growth
[12] = CLB30016 (NDM-1), 95% inhibition of bacterial growth
[13] = Serratia marcescens CL5741 (IMP-1), 95% growth inhibition
[14] = Klebsiella pneumoniae IHMA599644 (VIM-1), 95% growth inhibition
[15] = (CLB30016, NDM-1), 95% growth inhibition
[16] = NDM-1 enzyme, CCF2-FA substrate, read-out: NDM-1 IC50
[17] = VIM-1 enzyme, CCF2-FA substrate, read-out: VIM-1 IC50
[18] = IMP-1 enzyme, CCF2-FA substrate
[19] = VIM-1 IC50, VIM-1 enzyme, CCF2-FA substrate
[20] = Serratia marcescens expressing IMP-1 (CL5741), 95% growth inhibition
[21] = Klebsiella pneumoniae expressing VIM-1 (IHMA599644), 95% growth inhibition
[22] = Escherichia coli expressing NDM-1 (CLB30016), 95% growth inhibition
[23] = NDM-1 enzyme, CCF2-FA fluorescence assay, read-out: NDM-1 IC50
[24] = VIM-1 enzyme, CCF2-FA fluorescence assay, read-out: VIM-1 IC50
[25] = IMP-1 enzyme, CCF2-FA fluorescence assay

Row | SMILES | Serratia marcescens MITC95 [1, 13] | Klebsiella pneumoniae MITC95 [2, 14] | Escherichia coli MITC95 [3, 15] | IC50 [6, 18] | Serratia marcescens MITC95 [1, 20] | Klebsiella pneumoniae MITC95 [2, 21] | Escherichia coli MITC95 [3, 22] | IC50 [4, 23] | IC50 [5, 24] | IC50 [6, 25] | other results
1 | NS(=O)(=O)c1cccc(C2CCC2)c1-c1nnn[nH]1 [Example 149, 3-cyclobutyl-2-(1H-tetrazol-5-yl)benzenesulfonamide] |  |  |  |  |  |  |  |  |  |  | Serratia marcescens expressing IMP-1 (CL5741) MITC95 [1]: 6.25 µM; Klebsiella pneumoniae expressing VIM-1 (IHMA 599644) MITC95 [2]: 150 µM; Escherichia coli expressing NDM-1 (CLB 30016) MITC95 [3]: 1.563 µM; IC50 [4, 7]: 23.7 nM; IC50 [5, 8]: 861 nM; IC50 [6, 9]: 493 nM
2 | NC1CCCC12CCN(c1ccc(C(F)(F)F)c(S(N)(=O)=O)c1-c1nnn[nH]1)CC2 (stereo not drawn) [Example 761, 3-(1-amino-8-azaspiro[4.5]dec-8-yl)-2-(1H-tetrazol-5-yl)-6-(trifluoromethyl) benzenesulfonamide] |  |  |  |  |  |  |  |  |  |  | Serratia marcescens MITC95 [1, 10]: 100 µM; Klebsiella pneumoniae MITC95 [2, 11]: >200 µM; Escherichia coli MITC95 [3, 12]: 100 µM; IC50 [4, 7]: 46 nM; IC50 [5, 8]: 48.3 nM; IC50 [6, 9]: 104 nM
3 | NS(=O)(=O)c1cccc(-c2cnc(NC3CC3)nc2)c1-c1nnn[nH]1 [Example 123, 3-(2-(cyclopropylamino)pyrimidin-5-yl)-2-(1H-tetrazol-5-yl)benzenesulfonamide] |  |  |  |  |  |  |  |  |  |  | Serratia marcescens expressing IMP-1 (CL5741) MITC95 [1]: 18.75 µM; Klebsiella pneumoniae expressing VIM-1 (IHMA 599644) MITC95 [2]: >200 µM; Escherichia coli expressing NDM-1 (CLB 30016) MITC95 [3]: 1.563 µM; IC50 [4, 7]: 8.3 nM; IC50 [5, 8]: 309 nM; IC50 [6, 9]: 415 nM
4 | Cn1c(-c2ccc(-c3ccc(C(F)(F)F)c(S(N)(=O)=O)c3-c3nnn[nH]3)cc2)cnc1N.O=C(O)C(F)(F)F [Example 560, 3-[4-(2-amino-3-methyl-imidazol-4-yl)phenyl]-2-(1H-tetrazol-5-yl)-6-(trifluoromethyl)benzenesulfonamide] | 3.125 µM | 6.25 µM | 6.25 µM | 0.898 nM |  |  |  |  |  |  | IC50 [4, 16]: 0.727 nM; IC50 [5, 17]: 0.212 nM
5 | Nc1ncc(C#Cc2ccc(C(F)(F)F)c(S(N)(=O)=O)c2-c2nn[nH]n2)cc1CO [Example 507, 3-((6-Amino-5-(hydroxymethyl)pyridin-3-yl)ethynyl)-2-(2H-tetrazol-5-yl)-6-(trifluoromethyl)benzenesulfonamide] | 0.5859 µM | 25 µM | 4.688 µM | 4.31 nM |  |  |  |  |  |  | IC50 [4, 16]: 11.5 nM; IC50 [5, 19]: 3.27 nM
6 | NS(=O)(=O)c1cccc(-c2ccc3cnccc3c2)c1-c1nnn[nH]1 [Example 408, 3-(6-isoquinolyl)-2-(1H-tetrazol-5-yl)benzenesulfonamide] |  |  |  |  | 4.688 µM | 75 µM | 0.3906 µM | 1.38 nM | 14.9 nM | 84.3 nM | 
7 | N=C(N)NC[C@H]1CC[C@@H](c2ccc(C(F)(F)F)c(S(N)(=O)=O)c2-c2nnn[nH]2)CC1 [Example 502, 3-(cis 4-(guanidinomethyl)cyclohexyl)-2-(1H-tetrazol-5-yl)-6-(trifluoromethyl)benzenesulfonamide] | 1.563 µM | 9.375 µM | 1.563 µM | 1.19 nM |  |  |  |  |  |  | IC50 [4]: 0.52 nM; IC50 [5, 17]: 1.44 nM
8 | NS(=O)(=O)c1cccc(-c2cnc3cnccn23)c1-c1nnn[nH]1 [Example 651, 3-imidazo[1,2-a]pyrazin-3-yl-2-(1H-tetrazol-5-yl)benzenesulfonamide] | 37.5 µM | 6.25 µM | 1.172 µM | 900 nM |  |  |  |  |  |  | IC50 [4, 16]: 9.85 nM; IC50 [5, 19]: 40.7 nM
9 | CN(C)CCNc1nc2c(-c3cccc(S(N)(=O)=O)c3-c3nn[nH]n3)cccc2s1 [Example 640, 3-[2-[2-(dimethylamino)ethylami-no]-1,3-benzothiazol-4-yl]-2-(2H-tetrazol-5-yl)benzenesulfonamide] | 100 µM | 100 µM | 1.563 µM | 194 nM |  |  |  |  |  |  | IC50 [4, 16]: 0.855 nM; IC50 [5, 17]: 9.84 nM
10 | Cl.Cl.NC1(c2ccc(-c3cccc(S(N)(=O)=O)c3-c3nn[nH]n3)cc2)CCNCC1 [Example 283, 4′-(4-aminopiperidin-4-yl)-2-(2H-tetrazol-5-yl)-[1,1′-biphenyl]-3-sulfonamide dihydrochloride] |  |  |  |  | 2.344 µM | 12.5 µM | 0.5859 µM | 33 nM | 308 nM | 500 nM | 
11 | CN(CCCCN)c1nc2c(-c3cccc(S(N)(=O)=O)c3-c3nnn[nH]3)cccc2s1 [Example 645, 3-[2-[4-aminobutyl(methyl)amino]-1,3-benzothiazol-4-yl]-2-(1H-tetrazol-5-yl)benzenesulfonamide] | 100 µM | 50 µM | 1.563 µM | 88.8 nM |  |  |  |  |  |  | IC50 [4, 16]: 1.16 nM; IC50 [5, 19]: 5.29 nM
12 | Cc1ccccc1Cc1cccc(S(N)(=O)=O)c1-c1nnn[nH]1 [Example 155, 3-(2-methylbenzyl)-2-(1H-tetrazol-5-yl)benzenesulfonamide] |  |  |  |  |  |  |  |  |  |  | Serratia marcescens expressing IMP-1 (CL5741) MITC95 [1]: 2.344 µM; Klebsiella pneumoniae expressing VIM-1 (IHMA 599644) MITC95 [2]: 75 µM; Escherichia coli expressing NDM-1 (CLB 30016) MITC95 [3]: 3.125 µM; IC50 [4, 7]: 3 nM; IC50 [5, 8]: 16.2 nM; IC50 [6, 9]: 92.7 nM
13 | NS(=O)(=O)c1cccc(-c2ccc(CNC3CC(F)(F)C3)cc2)c1-c1nnn[nH]1 [Example 339, 4′-(((3,3-difluorocyclobutyl)amino)methyl)-2-(1H-tetrazol-5-yl)-[1,1′-biphenyl]-3-sulfonamide] |  |  |  |  | 1.563 µM | >200 µM | 0.5859 µM | 4.54 nM | 611 nM | 42.3 nM | 
14 | NS(=O)(=O)c1cccc(-c2ccc(CNCCN3CCCC3)cc2)c1-c1nn[nH]n1 [Example 328, 4′-(((2-(pyrrolidin-1-yl)ethyl)amino)methyl)-2-(2H-tetrazol-5-yl)-[1,1′-biphenyl]-3-sulfonamide] |  |  |  |  | 6.25 µM | 125 µM | 1.563 µM | 20.4 nM | 473 nM | 325 nM | 
15 | NS(=O)(=O)c1c(CCC2CNC2)ccc(-c2ccc(C3CCNCC3)cc2)c1-c1nn[nH]n1 [Example 466, 4-(2-(azetidin-3-yl)ethyl)-4′-(piperidin-4-yl)-2-(2H-tetrazol-5-yl)-[1,1′-biphenyl]-3-sulfonamide] |  |  |  |  | 1.563 µM | 1.563 µM | 0.7813 µM | 10.5 nM | 3.72 nM | 54.6 nM | 
16 | NS(=O)(=O)c1c(C(F)(F)F)ccc(N2CCCC3(CCNCC3)C2)c1-c1nnn[nH]1 [Example 772, 3-(2,9-diazaspiro[5.5]undec-2-yl)-2-(1H-tetrazol-5-yl)-6-(trifluoromethyl) benzenesulfonamide] |  |  |  |  |  |  |  |  |  |  | Serratia marcescens MITC95 [1, 10]: 50 µM; Klebsiella pneumoniae MITC95 [2, 11]: 50 µM; Escherichia coli MITC95 [3, 12]: 12.5 µM; IC50 [4, 7]: 33.9 nM; IC50 [5, 8]: 13.9 nM; IC50 [6, 9]: 114 nM
17 | NS(=O)(=O)c1cccc(-c2cc3cnccc3s2)c1-c1nnn[nH]1 [Example 411, 2-(1H-tetrazol-5-yl)-3-thieno[3,2-c]pyridin-2-yl-benzenesulfonamide] |  |  |  |  | 3.125 µM | 25 µM | 0.7813 µM | 4.84 nM | 27.8 nM | 102 nM | 
18 | NS(=O)(=O)c1cccc(-c2ccc(CN3CC(O)C(F)C3)cc2)c1-c1nnn[nH]1 (stereo not drawn) [Example 396, 4′-[(3-fluoro-4-hydroxypyrrolidin-1-yl)methyl]-2-(1H-tetrazol-5-yl)biphenyl-3-sulfonamide] |  |  |  |  | 1.172 µM | 100 µM | 1.172 µM | 3.21 nM | 181 nM | 22.4 nM | 
19 | NS(=O)(=O)c1cccc(-c2ccc(CNCCn3ccnn3)cc2)c1-c1nnn[nH]1 [Example 350, 2-(1H-tetrazol-5-yl)-4′-({[2-(1H-1,2,3-triazol-1-yl)ethyl]amino}methyl)biphenyl-3-sulfonamide] |  |  |  |  | 1.563 µM | >200 µM | 1.172 µM | 5.8 nM | 246 nM | 39.7 nM | 
